Where two headings read alike, the source gives them in different places.
Tested on: HSP70+L. infantum amastigotes
Test: ex vivo splenic explant culture of infrared HSP70+L. infantum-infected BALB/c mice, infrared fluorescence readout (384-well)
Type: cell-based
Details: Leishmania infantum
From the text: Several parameters were included in the development of the explant culture. i) Parasite infection rate is not equal in all animals from the same batch, thus in order to normalize the ex vivo culture, only spleens with weights ≥ 0.7 g were selected to prepare the ex vivo explants. ii) The starting cell density was adjusted in terms of fluorescence emission in a wide range of arbitrary units (0.25, 0.5, 1.0, and 2.0 x 10^5 AU). Since we intend to evaluate the drug inhibition in ex vivo cultures for at least 4 days, the initial number of AU that matched this condition was chosen. iii) Discrimination between drug-treated and untreated control cells was assessed by adding amphotericin B (AmpB) to the explants cultures. iv) To prevent the edge effect caused by evaporation from outer wells in assays with multi-day incubations, the top and bottom rows as well as the first and last columns were filled with ddH2O. In addition, the positive and negative controls were symmetrically distributed through the columns.
A total of 298 compounds belonged to three distinct collections including i) indenoisoquinolines obtained from Dr. Mark S. Cushman, Department of Medicinal Chemistry and Molecular Pharmacology (Purdue University, Indiana, USA.); ii) podophylotoxin and quinones were a kindly gift from Dr. Arturo San Feliciano, Deparment of Química Farmacéutica (Universidad de Salamanca, Spain) and iii) carbolins obtained from Dr. Sankaran Murugeshan, Department of Pharmacy, (Birla Institute of Technology & Science, Pilani, India). Stock solutions consisted of test compound at a concentration of 200 μM in 20% DMSO. The 200 μM master plates were further diluted by transferring aliquots of 5 μl into black 384-well plates with clear bottom containing 45 μl of culture medium. The final concentration of DMSO in both assay and control wells not exceeded 1% (v/v). […] The plates were incubated at 37 °C and 5% CO2 and at 0, 24, 48 and 72 h the infrared signal was recorded using the Odyssey infrared system (LI-COR, USA). […]
The antileishmanial effect of the compounds was calculated as the percentage inhibition in relation to AmpB and DMSO as follows: (mean of 1%DMSO–Experimental Value) / (mean of 1%DMSO–mean of AmpBEC100) x 100. […] The quality of the assay was given by Z’ factor that was calculated as 1 –[(3SD positive controls + 3SD negative controls) / (mean of the positive controls–mean of the negative controls)]. […]
Firstly, we checked the fluorescence dynamic range in which we could assure the effective and quantifiable replication of intracellular parasites inside macrophages in the absence of active drug over the course of the ex vivo culture. […] For this purpose, we fixed the fluorescence level per well, instead of adjusting the number of cells. […]

SMILES: C[C@@H]1[C@H](O)[C@@H](C)/C=C/C=C/C=C/C=C/C=C/C=C/C=C/[C@H](O[C@@H]2O[C@H](C)[C@@H](O)[C@H](N)[C@@H]2O)C[C@@H]2O[C@](O)(C[C@@H](O)C[C@@H](O)[C@H](O)CC[C@@H](O)C[C@@H](O)CC(=O)O[C@H]1C)C[C@H](O)[C@H]2C(=O)O [AmpB, amphotericin B]
- IC50 (72 h, across all starting cell densities (1.0, 2.0 and 4.0 x10^5 AU), read-out: IC50 values at 72 h): 0.27 to 0.38 µM
- IC50 (starting cell density High: 4x10^5 AU, ten 2-fold dilutions from 10 μM, Fig 4E): 0.31 ± 0.05 µM
- IC50 (starting cell density Low: 1x10^5 AU, ten 2-fold dilutions from 10 μM, Fig 4C): 0.38 ± 0.06 µM
- IC50 (starting cell density Medium: 2x10^5 AU, ten 2-fold dilutions from 10 μM, Fig 4D): 0.27 ± 0.04 µM

From publication PMC4380447, “Infrared Fluorescent Imaging as a Potent Tool for In Vitro, Ex Vivo and In Vivo Models of Visceral Leishmaniasis” (PLoS Neglected Tropical Diseases, 2015)
